From article PMC4048267, “Purification and Characterization of a Novel and Robust L-Asparaginase Having Low-Glutaminase Activity from Bacillus licheniformis: In Vitro Evaluation of Anti-Cancerous Properties” (PLoS ONE, 2014)

Test system: T1, L-asparaginase from Bacillus licheniformis RAM-8
T1 construct: gene L-asparagine amidohydrolase
Conditions: 25 °C; L-asparagine 2 to 20 mM; assay buffer 50 mM Tris-HCl pH 8.6

NC(=O)C[C@H](N)C(=O)O [L-asparagine]
Km: 14 µM
